DBAASP
Values after ≈ are worked out from the molar mass of the structure shown. Values joined by “and” are separate entries in the source; they are usually repeats but may differ in a detail not shown here. Equal entries are not always repeated. Each block holds one molecule with its values, some of them ahead of it.

What was measured:
Assay in all cases: ≥ marks a high value that may be exact or a test limit, other limits are often not marked, values filed in µg/mL are converted to µM
[1] = tested on: Escherichia coli ATCC 25922
Escherichia coli HB101 = tested on: Escherichia coli HB101
Bacillus subtilis PS832 = tested on: Bacillus subtilis PS832
Escherichia coli MG1655 = tested on: Escherichia coli MG1655
[2] = tested on: Bacillus anthracis UM23-CL2
[3] = tested on: Burkholderia cepacia J2540
[4] = tested on: Escherichia coli K12 MG1655
[5] = tested on: Staphylococcus aureus 68 HER 1049
[6] = tested on: Bacillus megaterium CIP 6620
[7] = tested on: Corynebacterium stationis CIP 101282
Escherichia coli SBS 363 = tested on: Escherichia coli SBS 363
[8] = tested on: Microbacterium maritypicum CIP 105733T
[9] = tested on: Micrococcus luteus CIP 5345
[10] = tested on: Staphylococcus aureus CIP 103428
[11] = tested on: Staphylococcus aureus SG511
[12] = tested on: Staphylococcus haemolyticus
[13] = tested on: Vibrio nigripulchritudo CIP 103195
[14] = tested on: Vibrio splendidus CIP 107715
Aeromonas hydrophila = tested on: Aeromonas hydrophila
Bacillus cereus = tested on: Bacillus cereus
Bacillus megaterium = tested on: Bacillus megaterium
Burkholderia stabilis = tested on: Burkholderia stabilis
Escherichia coli = tested on: Escherichia coli
Kluyvera cryocrescens = tested on: Kluyvera cryocrescens
Lelliottia amnigena = tested on: Lelliottia amnigena
Microbacterium oxydans = tested on: Microbacterium oxydans
Micrococcus luteus = tested on: Micrococcus luteus
Proteus sp. = tested on: Proteus sp.
Pseudomonas fluorescens = tested on: Pseudomonas fluorescens
[15] = tested on: Salmonella enterica subsp. enterica serovar Gallinarum
[16] = tested on: Salmonella enterica subsp. enterica serovar Typhi
Shigella sp. = tested on: Shigella sp.
Sporosarcina ureae = tested on: Sporosarcina ureae
Staphylococcus aureus = tested on: Staphylococcus aureus
[17] = tested on: Acinetobacter baumannii KCTC 2508
[18] = tested on: Klebsiella pneumoniae KCTC 2208
Klebsiella pneumoniae = tested on: Klebsiella pneumoniae
[19] = tested on: Micrococcus luteus ATCC 49732
[20] = tested on: Pseudomonas aeruginosa ATCC 27853
[21] = tested on: Staphylococcus aureus ATCC 25923
[22] = tested on: Vibrio anguillarum ATCC 43308
[23] = tested on: Lactiplantibacillus plantarum 965
[24] = tested on: Latilactobacillus sakei NCDO 2714

MIC [1]: > 128 µM
MIC (Escherichia coli HB101): ≥ 128 µM
Compound: CC[C@H](C)[C@H](NC(=O)[C@H](CCCN=C(N)N)NC(=O)[C@@H](N)CCCN=C(N)N)C(=O)N[C@@H](CCCN=C(N)N)C(=O)N1CCC[C@H]1C(=O)N[C@@H](CCCN=C(N)N)C(=O)N1CCC[C@H]1C(=O)N[C@@H](CCCN=C(N)N)C(=O)O [RRIRPRPR]

MIC (Bacillus subtilis PS832): 4 µM (≈ 6.19 µg/mL)
MIC (Escherichia coli MG1655): 8 µM (≈ 12.4 µg/mL)
Compound: CC[C@H](C)[C@H](NC(=O)[C@H](CCCN=C(N)N)NC(=O)[C@H](CCCCN)NC(=O)[C@H](CC(C)C)NC(=O)[C@H](CC(C)C)NC(=O)CNC(=O)[C@H](Cc1cnc[nH]1)NC(=O)[C@@H](NC(=O)[C@@H](N)CCCN=C(N)N)[C@@H](C)O)C(=O)N[C@@H](CCCCN)C(=O)N[C@H](C(=O)N[C@@H](CC(C)C)C(=O)N[C@@H](CC(C)C)C(N)=O)[C@@H](C)O [RTHGLLKRIKTLL]

Compound: CC[C@H](C)[C@H](NC(=O)CN)C(=O)NCC(=O)N[C@@H](CCCCN)C(=O)N[C@@H](Cc1ccccc1)C(=O)N[C@@H](CC(C)C)C(=O)N[C@@H](Cc1cnc[nH]1)C(=O)N[C@@H](CO)C(=O)N[C@@H](C)C(=O)N[C@@H](CCCCN)C(=O)N[C@@H](CCCCN)C(=O)N[C@@H](Cc1ccccc1)C(=O)N[C@@H](Cc1ccccc1)C(=O)N[C@@H](CCCCN)C(=O)N[C@@H](CCCN=C(N)N)C(=O)N[C@H](C(=O)N[C@H](C(=O)N[C@@H](CCC(N)=O)C(=O)N[C@@H](CCCN=C(N)N)C(=O)N[C@H](C(=O)N[C@@H](CCCCN)C(=O)N[C@@H](CC(=O)O)C(=O)N[C@@H](Cc1ccccc1)C(=O)N[C@@H](CC(C)C)C(=O)N[C@@H](CCCN=C(N)N)C(=O)O)[C@@H](C)CC)C(C)C)[C@@H](C)CC [GIGKFLHSAKKFFKRIVQRIKDFLR]
MIC [2]: ≥ 82.4 µM
MIC [3]: ≥ 82.4 µM

MIC [4]: 2.19 µM (≈ 4 µg/mL)
MIC [5]: 2.19 µM (≈ 4 µg/mL)
Compound: CC[C@H](C)[C@H](NC(=O)[C@H](CC(C)C)NC(=O)[C@H](CCCN=C(N)N)NC(=O)[C@H](Cc1c[nH]c2ccccc12)NC(=O)CN)C(=O)N[C@@H](CCCCN)C(=O)N[C@@H](CCCCN)C(=O)N[C@H](C(=O)N[C@@H](CC(C)C)C(=O)N[C@@H](CCCN=C(N)N)C(=O)N[C@H](C(=O)N[C@@H](Cc1ccccc1)C(=O)N[C@@H](CCCCN)C(=O)NCC(=O)N[C@@H](CC(C)C)C(=O)O)C(C)C)[C@@H](C)CC [GWRLIKKILRVFKGL]

MIC [6]: 20 µM (≈ 36.8 µg/mL)
MIC [7]: 20 µM (≈ 36.8 µg/mL)
MIC (Escherichia coli SBS 363): ≥ 80 µM
MIC [8]: 20 µM (≈ 36.8 µg/mL)
MIC [9]: ≥ 80 µM
MIC [10]: 20 µM (≈ 36.8 µg/mL)
MIC [11]: 20 µM (≈ 36.8 µg/mL)
MIC [13]: ≥ 40 µM
MIC [14]: ≥ 40 µM
Compound: CC[C@H](C)[C@H](NC(=O)[C@@H]1CCCN1C(=O)CN)C(=O)N[C@@H](CCCN=C(N)N)C(=O)N[C@@H](CCCN=C(N)N)C(=O)N1CCC[C@H]1C(=O)N[C@@H](CCCCN)C(=O)N1CCC[C@H]1C(=O)N[C@@H](CCCN=C(N)N)C(=O)N1CCC[C@H]1C(=O)N[C@@H](CCCN=C(N)N)C(=O)N[C@@H](CCC(N)=O)C(=O)N[C@@H](CCCN=C(N)N)C(=O)N1CCC[C@H]1C(=O)N[C@@H](CCC(=O)O)C(=O)O [GPIRRPKPRPRQRPE]
MIC [12]: 20 µM (≈ 36.8 µg/mL)

MIC (Aeromonas hydrophila): 1.64 µM (≈ 5.07 µg/mL)
MIC (Bacillus cereus): 0.327 µM (≈ 1.01 µg/mL)
MIC (Bacillus megaterium): 3.27 µM (≈ 10.1 µg/mL)
MIC (Burkholderia stabilis): ≥ 164 µM
MIC (Escherichia coli): 16.4 µM (≈ 50.7 µg/mL)
MIC (Kluyvera cryocrescens): ≥ 164 µM
MIC (Lelliottia amnigena): 16.4 µM (≈ 50.7 µg/mL)
MIC (Microbacterium oxydans): 0.164 µM (≈ 0.507 µg/mL)
MIC (Micrococcus luteus): 16.4 µM (≈ 50.7 µg/mL)
MIC (Proteus sp.): ≥ 164 µM
MIC (Pseudomonas fluorescens): ≥ 32.7 µM
MIC [15]: 1.64 µM (≈ 5.07 µg/mL)
MIC [16]: 16.4 µM (≈ 50.7 µg/mL)
MIC (Shigella sp.): 16.4 µM (≈ 50.7 µg/mL)
MIC (Sporosarcina ureae): ≥ 164 µM
MIC (Staphylococcus aureus): 164 µM (≈ 507 µg/mL)
Compound: CC[C@H](C)[C@H](NC(=O)[C@H](Cc1cnc[nH]1)NC(=O)[C@H](CC(N)=O)NC(=O)[C@@H](NC(=O)[C@@H](NC(=O)[C@H](CC(C)C)NC(=O)[C@H](CC(=O)O)NC(=O)[C@@H]1CCCN1C(=O)[C@H](CC(C)C)NC(=O)[C@H](CCCCN)NC(=O)[C@H](Cc1c[nH]c2ccccc12)NC(=O)[C@@H](N)CCC(=O)O)[C@@H](C)CC)[C@@H](C)CC)C(=O)N[C@H](C(=O)N[C@@H](CC(C)C)C(=O)N[C@H](C(=O)N[C@@H](CCCN=C(N)N)C(=O)N[C@@H](CCCN=C(N)N)C(=O)N[C@@H](CC(N)=O)C(=O)N[C@H]1CSSC[C@@H](C(=O)NCC(=O)O)NC(=O)[C@H](CCCN=C(N)N)NC(=O)[C@H](Cc2ccc(O)cc2)NC(=O)[C@H](CCCCN)NC(=O)[C@H](Cc2ccccc2)NC1=O)[C@@H](C)O)[C@@H](C)O [EWKLPDLIINHITLTRRNCFKYRCG]

MIC [17]: 16 µM (≈ 39.3 µg/mL)
MIC [1]: 2.57 µM (≈ 6.3 µg/mL)
MIC [18]: 16 µM (≈ 39.3 µg/mL)
MIC (Klebsiella pneumoniae): > 32 µM and 16 µM
MIC [19]: 2.57 µM (≈ 6.3 µg/mL)
MIC [20]: 32 µM (≈ 78.6 µg/mL)
MIC [21]: 2.57 µM (≈ 6.3 µg/mL)
MIC [22]: 5.09 µM (≈ 12.5 µg/mL)
Compound: CC[C@H](C)[C@H](NC(=O)[C@@H](NC(=O)[C@H](Cc1cnc[nH]1)NC(=O)[C@H](CCCN=C(N)N)NC(=O)[C@H](C)NC(=O)[C@H](CCCN=C(N)N)NC(=O)[C@H](CC(C)C)NC(=O)[C@H](CO)NC(=O)[C@H](C)NC(=O)[C@H](CS)NC(=O)[C@H](CC(C)C)NC(=O)[C@@H](N)CC(N)=O)[C@@H](C)O)C(=O)N1CCC[C@H]1C(=O)N[C@@H](CCC(N)=O)C(=O)N[C@@H](CS)C(=O)N[C@@H](CCCCN)C(=O)N[C@@H](CCCCN)C(=O)N[C@@H](Cc1ccccc1)C(=O)NCC(=O)N[C@@H](CCCN=C(N)N)C(=O)N[C@@H](CCCN=C(N)N)C(=O)O [NLCASLRARHTIPQCKKFGRR]

MIC [24]: 0.015 µM (≈ 0.0298 µg/mL)
Compound: CC[C@H](C)[C@H](NC(=O)[C@H](C)NC(=O)[C@@H](NC(=O)[C@H](C)NC(=O)CN)[C@@H](C)O)C(=O)N[C@@H](CCCCN)C(=O)N[C@@H](CCC(N)=O)C(=O)N[C@H](C(=O)N[C@@H](CCCCN)C(=O)N[C@@H](CCCCN)C(=O)N[C@@H](CC(C)C)C(=O)N[C@@H](Cc1ccccc1)C(=O)N[C@@H](CCCCN)C(=O)N[C@@H](CCCCN)C(=O)N[C@@H](Cc1c[nH]c2ccccc12)C(=O)NCC(=O)N[C@@H](Cc1c[nH]c2ccccc12)C(=O)O)C(C)C [GATAIKQVKKLFKKWGW]
MIC [23]: 0.4 µM (≈ 0.796 µg/mL)
